Assay results as given in article PMC5639694 (Journal of medicinal chemistry, 2017).
Entries after “also recorded” stand apart in the source; their conditions may differ. Square brackets hold non-standard residues; d marks the D form. Peptide text beside a SMILES is read from it. Dap = NC[C@H](N)C(=O)O

Columns and labels:
mMC4R = mMC4R (Mus musculus, UniProt P56450); assay: AlphaScreen cAMP agonist assay, HEK293 cells stably expressing mMC4R; settings: for mMC4R agonist activity/efficacy in words: concentrations up to 100 μM, full agonist = >90% maximal NDP-MSH stimulation; for selectivity for the mMC4R over the mMC3R: agonist potency ratio
Sequence of mMC4R (P56450 whole entry): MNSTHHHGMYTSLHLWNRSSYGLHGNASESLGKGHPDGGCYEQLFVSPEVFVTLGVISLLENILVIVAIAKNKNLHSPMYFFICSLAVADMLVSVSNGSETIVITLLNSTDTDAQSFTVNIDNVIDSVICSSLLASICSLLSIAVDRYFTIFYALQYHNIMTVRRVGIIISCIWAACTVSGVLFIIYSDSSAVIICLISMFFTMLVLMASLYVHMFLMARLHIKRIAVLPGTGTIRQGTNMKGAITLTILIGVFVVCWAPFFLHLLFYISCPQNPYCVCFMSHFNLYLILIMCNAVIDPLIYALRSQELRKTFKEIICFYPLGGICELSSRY

mMC3R = mMC3R (Mus musculus, UniProt P33033); assay: AlphaScreen cAMP agonist assay, HEK293 cells stably expressing mMC3R; settings: for mMC3R partial agonist, percent maximal NDP stimulation: PA, relative to maximal NDP-MSH response; for mMC3R agonist activity/efficacy in words: concentrations up to 100 μM, full agonist = >90% maximal NDP-MSH stimulation
Sequence of mMC3R (P33033 whole entry): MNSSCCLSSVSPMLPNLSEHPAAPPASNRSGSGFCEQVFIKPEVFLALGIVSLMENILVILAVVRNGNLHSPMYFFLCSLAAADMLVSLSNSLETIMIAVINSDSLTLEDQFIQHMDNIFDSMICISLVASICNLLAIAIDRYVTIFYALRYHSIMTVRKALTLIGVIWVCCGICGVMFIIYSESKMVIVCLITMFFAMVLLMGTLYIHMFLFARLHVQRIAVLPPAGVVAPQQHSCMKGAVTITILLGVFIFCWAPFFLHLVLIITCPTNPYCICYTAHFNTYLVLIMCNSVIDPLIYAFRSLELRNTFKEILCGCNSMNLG

mMC5R = mMC5R (Mus musculus, UniProt P41149); assay: AlphaScreen cAMP agonist assay, HEK293 cells stably expressing mMC5R; settings: for selectivity for the mMC5R over the mMC3R: agonist potency ratio; for mMC5R agonist activity/efficacy in words: concentrations up to 100 μM, full agonist = >90% maximal NDP-MSH stimulation
Sequence of mMC5R (P41149 whole entry): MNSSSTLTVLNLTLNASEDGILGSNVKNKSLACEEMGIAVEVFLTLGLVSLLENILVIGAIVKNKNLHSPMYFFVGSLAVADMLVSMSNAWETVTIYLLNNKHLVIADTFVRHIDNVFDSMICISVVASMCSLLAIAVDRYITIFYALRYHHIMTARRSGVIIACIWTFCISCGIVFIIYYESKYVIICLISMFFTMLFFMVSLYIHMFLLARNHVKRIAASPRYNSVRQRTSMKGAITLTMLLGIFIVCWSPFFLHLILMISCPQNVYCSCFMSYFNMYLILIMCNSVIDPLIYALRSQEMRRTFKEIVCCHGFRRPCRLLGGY

mMC1R = mMC1R (Mus musculus, UniProt Q01727); assay: AlphaScreen cAMP agonist assay, HEK293 cells stably expressing mMC1R; settings: for mMC1R agonist activity/efficacy in words: full agonist = >90% maximal NDP-MSH stimulation; for selectivity for the mMC1R over the mMC3R: agonist potency ratio
Sequence of mMC1R (Q01727 whole entry): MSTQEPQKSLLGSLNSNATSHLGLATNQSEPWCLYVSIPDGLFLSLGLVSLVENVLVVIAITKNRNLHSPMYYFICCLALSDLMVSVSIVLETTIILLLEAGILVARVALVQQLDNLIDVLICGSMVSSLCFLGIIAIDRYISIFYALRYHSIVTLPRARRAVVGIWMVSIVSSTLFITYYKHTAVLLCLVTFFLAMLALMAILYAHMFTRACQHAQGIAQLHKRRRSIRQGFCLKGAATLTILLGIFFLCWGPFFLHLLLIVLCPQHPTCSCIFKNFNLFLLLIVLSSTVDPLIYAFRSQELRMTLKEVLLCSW

| SMILES | mMC4R agonist activity/efficacy in words (mMC4R) | decreased agonist potency at mMC1R relative to 1 (mMC1R) [fold] | mMC3R agonist activity/efficacy in words (mMC3R) | mMC1R agonist activity/efficacy in words (mMC1R) | selectivity for the mMC5R over the mMC3R (mMC5R) [fold] | further results |
| --- | --- | --- | --- | --- | --- | --- |
| C[C@@H]1NC(=O)[C@H](CC(N)=O)NC(=O)[C@H](Cc2c[nH]c3ccccc23)NC(=O)[C@H](CCCNC(=N)N)NC(=O)[C@@H](Cc2ccccc2)NC(=O)[C@H](Cc2c[nH]cn2)NC(=O)[C@@H]2CCCN2C(=O)[C@H]2CCCN2C(=O)[C@H](Cc2ccccc2)NC1=O [Peptide 1, c[Pro-His-DPhe-Arg-Trp-Asn-Ala-Phe-DPro]] (cyclo(H[dF]RWNAF[dP]P)) | full agonists |  |  |  |  |  |
| C[C@@H]1NC(=O)[C@H](CC(N)=O)NC(=O)[C@H](Cc2c[nH]c3ccccc23)NC(=O)[C@H](CCCNC(=N)N)NC(=O)[C@@H](Cc2ccccc2)NC(=O)[C@H](Cc2c[nH]cn2)NC(=O)[C@@H]2CCCN2C(=O)[C@H]2CCCN2C1=O [Peptide 2, c[Pro-His-DPhe-Arg-Trp-Asn-Ala-DPro]] (cyclo(PH[dF]RWNA[dP])) |  | 34 |  |  |  | mMC3R partial agonist, percent maximal NDP stimulation (mMC3R): 85%; decreased agonist potency at mMC5R relative to 1 (mMC5R): 5 fold; decreased agonist potency at mMC4R relative to 1 (mMC4R): 21 fold |
| N=C(N)NCCC[C@@H]1NC(=O)[C@@H](Cc2ccccc2)NC(=O)[C@H](Cc2c[nH]cn2)NC(=O)[C@@H]2CCCN2C(=O)[C@H]2CCCN2C(=O)[C@H](CC(N)=O)NC(=O)[C@H](Cc2c[nH]c3ccccc23)NC1=O [Peptide 3, c[Pro-His-DPhe-Arg-Trp-Asn-DPro]] (cyclo(PH[dF]RWN[dP])) |  | 140 |  |  |  | mMC3R partial agonist, percent maximal NDP stimulation (mMC3R): 65%; decreased agonist potency at mMC5R relative to 1 (mMC5R): 37 fold; decreased agonist potency at mMC4R relative to 1 (mMC4R): 120 fold |
| C[C@@H]1NC(=O)[C@H](CN)NC(=O)[C@H](Cc2c[nH]c3ccccc23)NC(=O)[C@H](CCCNC(=N)N)NC(=O)[C@@H](Cc2ccccc2)NC(=O)[C@H](Cc2c[nH]cn2)NC(=O)[C@@H]2CCCN2C(=O)[C@H]2CCCN2C(=O)[C@H](Cc2ccccc2)NC1=O [Peptide 4, c[Pro-His-DPhe-Arg-Trp-Dap-Ala-Phe-DPro]] (cyclo(PH[dF]RW[Dap]AF[dP])) | partial agonist | 70 | full agonist | full agonist |  | mMC4R partial agonist, percent maximal NDP stimulation (mMC4R; PA, relative to maximal NDP-MSH response): 70% |
| C[C@@H]1NC(=O)[C@H](CN)NC(=O)[C@H](Cc2c[nH]c3ccccc23)NC(=O)[C@H](CCCNC(=N)N)NC(=O)[C@@H](Cc2ccccc2)NC(=O)[C@H](Cc2c[nH]cn2)NC(=O)[C@@H]2CCCN2C(=O)[C@H]2CCCN2C1=O [Peptide 5, c[Pro-His-DPhe-Arg-Trp-Dap-Ala-DPro]] (cyclo(H[dF]RW[Dap]A[dP]P)) | fully stimulate; also recorded: full agonists |  |  |  | > 100 |  |
| N=C(N)NCCC[C@@H]1NC(=O)[C@@H](Cc2ccccc2)NC(=O)[C@H](Cc2c[nH]cn2)NC(=O)[C@@H]2CCCN2C(=O)[C@H]2CCCN2C(=O)[C@H](CN)NC(=O)[C@H](Cc2c[nH]c3ccccc23)NC1=O [Peptide 6, c[Pro-His-DPhe-Arg-Trp-Dap-DPro]] (cyclo(PH[dF]RW[Dap][dP])) |  |  | partially stimulated |  | > 100 | decreased agonist potency at mMC5R relative to 5 (mMC5R; relative to 5): 1,100 fold; selectivity for the mMC1R over the mMC3R (mMC1R): > 100 fold; decreased agonist potency at mMC1R relative to 5 (mMC1R; relative to 5): 420 fold; decreased agonist potency at mMC4R relative to 5 (mMC4R; relative to 5): 590 fold |
| N=C(N)NCCC[C@@H]1NC(=O)[C@@H](Cc2ccccc2)NC(=O)[C@H](Cc2c[nH]cn2)NC(=O)[C@@H]2CCCN2C(=O)[C@H]2CCCN2C(=O)[C@H](Cc2c[nH]c3ccccc23)NC1=O [Peptide 7, c[Pro-His-DPhe-Arg-Trp-DPro]] (cyclo(PH[dF]RW[dP])) |  |  | partially stimulated |  |  |  |
| C[C@@H]1NC(=O)[C@H](CC(N)=O)NC(=O)[C@H](Cc2c[nH]c3ccccc23)NC(=O)[C@H](CCCNC(=N)N)NC(=O)[C@@H](Cc2ccccc2)NC(=O)[C@@H]2CCCN2C(=O)[C@H]2CCCN2C(=O)[C@H](Cc2ccccc2)NC1=O [Peptide 8, c[Pro-DPhe-Arg-Trp-Asn-Ala-Phe-DPro]] (cyclo(P[dF]RWNAF[dP])) |  | 1140 | partially stimulated | full mMC1R agonists | > 1000 | decreased agonist potency at mMC5R relative to 1 (mMC5R): 90 fold; selectivity for the mMC1R over the mMC3R (mMC1R): > 100 fold; selectivity for the mMC4R over the mMC3R (mMC4R): > 300 fold; decreased agonist potency at mMC4R relative to 1 (mMC4R): 90 fold |
| C[C@@H]1NC(=O)[C@H](CC(N)=O)NC(=O)[C@H](Cc2c[nH]c3ccccc23)NC(=O)[C@H](CCCNC(=N)N)NC(=O)[C@@H](Cc2ccccc2)NC(=O)[C@@H]2CCCN2C(=O)[C@H]2CCCN2C1=O [Peptide 9, c[Pro-DPhe-Arg-Trp-Asn-Ala-DPro]] (cyclo(P[dF]RWNA[dP])) |  |  | partially stimulated | full mMC1R agonists | > 1000 | selectivity for the mMC1R over the mMC3R (mMC1R): > 100 fold |
| N=C(N)NCCC[C@@H]1NC(=O)[C@@H](Cc2ccccc2)NC(=O)[C@@H]2CCCN2C(=O)[C@H]2CCCN2C(=O)[C@H](CC(N)=O)NC(=O)[C@H](Cc2c[nH]c3ccccc23)NC1=O [Peptide 10, c[Pro-DPhe-Arg-Trp-Asn-DPro]] (cyclo(P[dF]RWN[dP])) |  |  | no agonist activity; also recorded: did not possess agonist activity |  |  | mMC5R agonist activity/efficacy in words (mMC5R): partially stimulated |
| C[C@@H]1NC(=O)[C@H](CN)NC(=O)[C@H](Cc2c[nH]c3ccccc23)NC(=O)[C@H](CCCNC(=N)N)NC(=O)[C@@H](Cc2ccccc2)NC(=O)[C@@H]2CCCN2C(=O)[C@H]2CCCN2C(=O)[C@H](Cc2ccccc2)NC1=O [Peptide 11, c[Pro-DPhe-Arg-Trp-Dap-Ala-Phe-DPro]] (cyclo(P[dF]RW[Dap]AF[dP])) | full agonist efficacy |  | partial agonist | partial agonist |  | mMC5R agonist activity/efficacy in words (mMC5R): full agonist efficacy |
| C[C@@H]1NC(=O)[C@H](CN)NC(=O)[C@H](Cc2c[nH]c3ccccc23)NC(=O)[C@H](CCCNC(=N)N)NC(=O)[C@@H](Cc2ccccc2)NC(=O)[C@@H]2CCCN2C(=O)[C@H]2CCCN2C1=O [Peptide 12, c[Pro-DPhe-Arg-Trp-Dap-Ala-DPro]] (cyclo(P[dF]RW[Dap]A[dP])) |  |  | partially stimulated | full agonist efficacy; also recorded: full mMC1R agonists | > 1000 | selectivity for the mMC4R over the mMC3R (mMC4R): > 300 fold |
| N=C(N)NCCC[C@@H]1NC(=O)[C@@H](Cc2ccccc2)NC(=O)[C@@H]2CCCN2C(=O)[C@H]2CCCN2C(=O)[C@H](CN)NC(=O)[C@H](Cc2c[nH]c3ccccc23)NC1=O [Peptide 13, c[Pro-DPhe-Arg-Trp-Dap-DPro]] (cyclo(P[dF]RW[Dap][dP])) | partially stimulated |  | no observable activity; also recorded: did not possess agonist activity; also recorded: no agonist activity |  |  | mMC5R agonist activity/efficacy in words (mMC5R): no observable activity; also recorded: unable to stimulate; also recorded: no agonist activity |
